# Laboratory results as given in patent US7705003B2, “Cyclohexylamides as dopamine D3, D2 and 5-HT1A Antagonists” (Richter Gedeon Vegyeszeti Gyar RT., priority 2005, dated 2010).
# Assays:
# Male CD-1 mice = experiment: Inhibition of apomorphine induced climbing; type: in vivo; conditions: for ED50: Mus musculus; for ranking of activity in apomorphine climbing assay: apomorphine climbing in mice
# Description: With respect to the expected clinical application of the compounds of the present invention in addition to their receptor binding profile their in vivo efficacy is a crucial issue as well. Therefore, in vivo potency and efficacy of the compounds of formula (I) were studied in the apomorphine climbing assay, an animal screening test for antipsychotic activity.
# 5. Inhibition of Apomorphine Induced Climbing
# Male CD-1 mice weighing 20-25 g were injected orally (n=12) with the test compound or vehicle. Fifty minutes later the animals were placed into cylindrical cages with walls of vertical metal bars. After 10 minutes habituation the mice were treated with apomorphine (1.5 mg/kg sc.). […] Scores were summed for each individual and group means were calculated. Drug effect was expressed and plotted as percentage inhibition of the apomorphine induced behaviour.
# α1 receptor = experiment: α-1 receptor binding ([3H]-prazosine, rat cortical membrane)
# Description: α1 receptor binding study was performed according to the methods described by Greengrass and Bremner (Eur. J. Pharmacol., 55:323-326, 1979) on rat cortical membrane preparation using [^3H]-prazosine (0.22-0.37 nM) as ligand. The non-specific binding was determined in the presence of 10 μM phentolamine.
# D2 receptor = D2 receptor (Rattus norvegicus, UniProt P61169); experiment: D2 receptor binding ([3H]spiperone, rat brain striatal membrane)
# Description: Non-specific binding was determined in the presence of 1 μM (+) butaclamol.
# 5-HT1A receptor = biological target: T1, 5-HT1A receptor (Rattus norvegicus, UniProt P19327); experiment: 5-HT1A binding ([3H]8-OH-DPAT, rat hippocampal membrane); conditions: [3H]8-hydroxy-2-(di-n-propylamino)-tetralin
# T1 construct: on rat hippocampal membrane preparation; from tissue; host or cells: rat hippocampus membranes
# T1 sequence (P19327 1-422): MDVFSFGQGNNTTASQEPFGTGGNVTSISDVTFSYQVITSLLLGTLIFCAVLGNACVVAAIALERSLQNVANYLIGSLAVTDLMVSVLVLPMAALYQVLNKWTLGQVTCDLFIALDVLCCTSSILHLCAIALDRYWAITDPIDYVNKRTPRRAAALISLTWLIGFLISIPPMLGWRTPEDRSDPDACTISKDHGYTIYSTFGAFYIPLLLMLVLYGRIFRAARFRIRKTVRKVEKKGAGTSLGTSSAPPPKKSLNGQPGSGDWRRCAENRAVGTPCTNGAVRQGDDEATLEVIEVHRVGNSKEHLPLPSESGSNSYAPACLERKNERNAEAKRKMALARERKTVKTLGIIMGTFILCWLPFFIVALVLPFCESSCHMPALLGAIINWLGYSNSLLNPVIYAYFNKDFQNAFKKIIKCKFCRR
# Description: The non-specific binding was determined in the presence of 10 μM serotonin creatinine sulphate.
# [1] = biological target: T2, rat recombinant D3 receptors (Rattus norvegicus, UniProt P19020); experiment: D3 receptor binding ([3H]spiperone); conditions: rat recombinant D3 receptors expressed in Sf9 cells
# T2 construct: purchased Perkin-Elmer 6110139; host or cells: Sf9 cells
# T2 sequence (P19020 whole entry): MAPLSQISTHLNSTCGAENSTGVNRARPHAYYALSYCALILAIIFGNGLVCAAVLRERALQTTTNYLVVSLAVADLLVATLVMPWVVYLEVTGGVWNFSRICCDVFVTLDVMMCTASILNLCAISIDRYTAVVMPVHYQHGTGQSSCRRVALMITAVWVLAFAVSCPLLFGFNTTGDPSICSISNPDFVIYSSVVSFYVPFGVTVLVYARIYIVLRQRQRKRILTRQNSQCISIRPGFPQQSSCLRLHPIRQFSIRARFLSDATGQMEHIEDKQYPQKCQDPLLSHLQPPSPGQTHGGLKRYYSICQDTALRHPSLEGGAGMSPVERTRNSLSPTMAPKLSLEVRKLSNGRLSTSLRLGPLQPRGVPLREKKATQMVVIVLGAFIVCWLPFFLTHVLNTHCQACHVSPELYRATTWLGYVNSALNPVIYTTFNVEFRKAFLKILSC
# Chain of D2 receptor (P61169 1-415 isoform P61169-2): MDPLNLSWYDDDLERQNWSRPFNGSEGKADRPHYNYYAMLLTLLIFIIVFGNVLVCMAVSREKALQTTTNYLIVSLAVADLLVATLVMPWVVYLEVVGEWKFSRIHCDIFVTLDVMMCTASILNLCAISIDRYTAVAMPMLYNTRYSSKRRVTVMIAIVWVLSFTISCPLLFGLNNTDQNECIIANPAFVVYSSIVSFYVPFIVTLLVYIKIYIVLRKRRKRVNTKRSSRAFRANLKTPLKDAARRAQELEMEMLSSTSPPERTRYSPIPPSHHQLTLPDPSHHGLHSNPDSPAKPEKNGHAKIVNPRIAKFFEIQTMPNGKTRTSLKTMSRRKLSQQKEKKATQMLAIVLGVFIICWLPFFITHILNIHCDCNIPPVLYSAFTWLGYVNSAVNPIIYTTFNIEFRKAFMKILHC
IC50 (α1 receptor),IC50 (D2 receptor),IC50 (5-HT1A receptor),IC50 [1],melting point,Compound,ED50 (Male CD-1 mice),ranking of activity in apomorphine climbing assay (Male CD-1 mice)
,,,,,"O=C1CCc2ccc(OCCCCN3CCN(c4cccc(Cl)c4Cl)CC3)cc2N1 [Aripiprazole, reference compound]",1 mg/kg,
0.04 to 0.2 µM,0.01 to 0.04 µM,0.001 to 0.02 µM,< 0.002 µM,202 to 204 °C,"CC(=O)N[C@H]1CC[C@H](CCN2CCN(c3cccc4c3CCC4)CC2)CC1 [Compound 1, trans-N-{4-[2-[4-(indan-4-yl)-piperazin-1-yl]-ethyl]-cyclohexyl}-acetamide]",0.14 mg/kg,most active
0.04 to 0.2 µM,0.01 to 0.04 µM,0.001 to 0.02 µM,< 0.002 µM,194 to 196 °C,"CCC(=O)N[C@H]1CC[C@H](CCN2CCN(c3cccc4c3CCC4)CC2)CC1 [Compound 2, trans-N-{4-[2-[4-(indan-4-yl)-piperazin-1-yl]-ethyl]-cyclohexyl}-propionamide]",0.21 mg/kg,
0.04 to 0.2 µM,0.01 to 0.04 µM,0.001 to 0.02 µM,< 0.002 µM,150 to 152 °C,"CN(C)C(=O)N[C@H]1CC[C@H](CCN2CCN(c3cccc4c3CCC4)CC2)CC1 [Compound 3, trans-1-{4-[2-[4-(indan-4-yl)-piperazin-1-yl]-ethyl]-cyclohexyl}-3,3-dimethyl-urea]",0.11 mg/kg,most active
0.04 to 0.2 µM,0.01 to 0.04 µM,0.001 to 0.02 µM,< 0.002 µM,157 to 159 °C,"CCN(CC)C(=O)N[C@H]1CC[C@H](CCN2CCN(c3cccc4c3CCC4)CC2)CC1 [Compound 4, trans-1-{4-[2-[4-(indan-4-yl)-piperazin-1-yl]-ethyl]-cyclohexyl}-3,3-diethyl-urea]",0.46 mg/kg,
0.04 to 0.2 µM,0.01 to 0.04 µM,0.001 to 0.02 µM,< 0.002 µM,198 to 200 °C,"CCNC(=O)N[C@H]1CC[C@H](CCN2CCN(c3cccc4c3CCC4)CC2)CC1 [Compound 5, trans-1-{4-[2-[4-(indan-4-yl)-piperazin-1-yl]-ethyl]-cyclohexyl}-3-ethyl-urea]",0.47 mg/kg,
0.04 to 0.2 µM,0.01 to 0.04 µM,0.001 to 0.02 µM,< 0.002 µM,181 to 182 °C,"O=C(N[C@H]1CC[C@H](CCN2CCN(c3cccc4c3CCC4)CC2)CC1)N1CCOCC1 [Compound 6, trans-N-{4-[2-[4-(indan-4-yl)-piperazin-1-yl]-ethyl]-cyclohexyl}-morpholine-4-carboxamide]",0.16 mg/kg,most active
,,,,204 to 206 °C,"NC(=O)N[C@H]1CC[C@H](CCN2CCN(c3cccc4c3CCC4)CC2)CC1 [Compound 7, trans-1-{4-[2-[4-(indan-4-yl)-piperazin-1-yl]-ethyl]-cyclohexyl}-urea]",,
,,,,152 to 154 °C,"CN(C)C(=O)N[C@H]1CC[C@H](CN2CCN(c3cccc4c3CCC4)CC2)CC1 [Compound 8, trans-1-{4-[[4-(indan-4-yl)-piperazin-1-yl]-methyl]-cyclohexyl}-3,3-dimethyl-urea]",,
> 0.2 µM,0.01 to 0.04 µM,0.001 to 0.02 µM,< 0.002 µM,187 to 189 °C,"CC(=O)N[C@H]1CC[C@H](CCN2CCN(c3cccc4c3CCCC4)CC2)CC1 [Compound 9, trans-N-{4-[2-[4-(5,6,7,8-tetrahydronaphthalen-1-yl)-piperazin-1-yl]-ethyl]-cyclohexyl}-acetamide]",0.26 mg/kg,
> 0.2 µM,0.01 to 0.04 µM,0.001 to 0.02 µM,< 0.002 µM,182 to 185 °C,"CCC(=O)N[C@H]1CC[C@H](CCN2CCN(c3cccc4c3CCCC4)CC2)CC1 [Compound 10, trans-N-{4-[2-[4-(5,6,7,8-tetrahydronaphthalen-1-yl)-piperazin-1-yl]-ethyl]-cyclohexyl}-propionamide]",0.35 mg/kg,
0.04 to 0.2 µM,0.01 to 0.04 µM,0.001 to 0.02 µM,< 0.002 µM,190 to 193 °C,"CN(C)C(=O)N[C@H]1CC[C@H](CCN2CCN(c3cccc4c3CCCC4)CC2)CC1 [Compound 11, trans-1-{4-[2-[4-(5,6,7,8-tetrahydronaphthalen-1-yl)-piperazin-1-yl]-ethyl]-cyclohexyl}-3,3-dimethyl-urea]",0.23 mg/kg,
0.04 to 0.2 µM,0.01 to 0.04 µM,0.001 to 0.02 µM,< 0.002 µM,178 to 180 °C,"O=C(N[C@H]1CC[C@H](CCN2CCN(c3cccc4c3CCCC4)CC2)CC1)N1CCOCC1 [Compound 12, trans-N-{4-[2-[4-(5,6,7,8-tetrahydronaphthalen-1-yl)-piperazin-1-yl]-ethyl]-cyclohexyl}-morpholine-4-carboxamide]",0.2 mg/kg,
,,,,,"Cc1cc2c(s1)Nc1ccccc1N=C2N1CCN(C)CC1 [Olanzapine, reference compound]",1.3 mg/kg,
